The NIST ThermoML archive (doi:10.1016/j.fluid.2006.11.005)
Numbers after ± are expanded uncertainties.

Test: xn = mol fraction of the nth substance listed
Settings: 101.33 kPa, Liquid

Compound: ClC(Cl)Cl [trichloromethane] + CCO
- mass density (288.15 K, x2 = 0): 1498.08 ± 0.92 kg/m3
- mass density (288.15 K, x2 = 0.0485): 1472.17 ± 0.89 kg/m3
- mass density (288.15 K, x2 = 0.0997): 1444.69 ± 0.84 kg/m3
- mass density (288.15 K, x2 = 0.1993): 1389.44 ± 0.76 kg/m3
- mass density (288.15 K, x2 = 0.2999): 1331.01 ± 0.67 kg/m3
- mass density (288.15 K, x2 = 0.4002): 1269.36 ± 0.57 kg/m3
- mass density (288.15 K, x2 = 0.4984): 1204.89 ± 0.48 kg/m3
- mass density (288.15 K, x2 = 0.5504): 1168.93 ± 0.42 kg/m3
- mass density (288.15 K, x2 = 0.6001): 1133.49 ± 0.37 kg/m3
- mass density (288.15 K, x2 = 0.6949): 1062.09 ± 0.28 kg/m3
- mass density (288.15 K, x2 = 0.794): 981.537 ± 0.23 kg/m3
- mass density (288.15 K, x2 = 0.8503): 933.183 ± 0.29 kg/m3
- mass density (288.15 K, x2 = 0.9001): 888.356 ± 0.36 kg/m3
- mass density (293.15 K, x2 = 0): 1488.64 ± 0.91 kg/m3
- mass density (293.15 K, x2 = 0.0485): 1462.84 ± 0.87 kg/m3
- mass density (293.15 K, x2 = 0.0997): 1435.55 ± 0.83 kg/m3
- mass density (293.15 K, x2 = 0.1993): 1380.64 ± 0.74 kg/m3
- mass density (293.15 K, x2 = 0.2999): 1322.64 ± 0.65 kg/m3
- mass density (293.15 K, x2 = 0.4002): 1261.46 ± 0.56 kg/m3
- mass density (293.15 K, x2 = 0.4984): 1197.52 ± 0.46 kg/m3
- mass density (293.15 K, x2 = 0.5504): 1161.84 ± 0.41 kg/m3
- mass density (293.15 K, x2 = 0.6001): 1126.69 ± 0.36 kg/m3
- mass density (293.15 K, x2 = 0.6949): 1055.88 ± 0.27 kg/m3
- mass density (293.15 K, x2 = 0.794): 976.02 ± 0.24 kg/m3
- mass density (293.15 K, x2 = 0.8503): 927.998 ± 0.3 kg/m3
- mass density (293.15 K, x2 = 0.9001): 883.494 ± 0.36 kg/m3
- mass density (298.15 K, x2 = 0): 1479.15 ± 0.89 kg/m3
- mass density (298.15 K, x2 = 0.0485): 1453.46 ± 0.86 kg/m3
- mass density (298.15 K, x2 = 0.0997): 1426.28 ± 0.81 kg/m3
- mass density (298.15 K, x2 = 0.1993): 1371.77 ± 0.73 kg/m3
- mass density (298.15 K, x2 = 0.2999): 1314.2 ± 0.64 kg/m3
- mass density (298.15 K, x2 = 0.4002): 1253.5 ± 0.55 kg/m3
- mass density (298.15 K, x2 = 0.4984): 1190.08 ± 0.45 kg/m3
- mass density (298.15 K, x2 = 0.5504): 1154.69 ± 0.4 kg/m3
- mass density (298.15 K, x2 = 0.6001): 1119.83 ± 0.35 kg/m3
- mass density (298.15 K, x2 = 0.6949): 1049.61 ± 0.26 kg/m3
- mass density (298.15 K, x2 = 0.794): 970.455 ± 0.24 kg/m3
- mass density (298.15 K, x2 = 0.8503): 922.772 ± 0.31 kg/m3
- mass density (298.15 K, x2 = 0.9001): 878.595 ± 0.37 kg/m3
- mass density (303.15 K, x2 = 0): 1469.61 ± 0.88 kg/m3
- mass density (303.15 K, x2 = 0.0485): 1444.03 ± 0.84 kg/m3
- mass density (303.15 K, x2 = 0.0997): 1416.99 ± 0.8 kg/m3
- mass density (303.15 K, x2 = 0.1993): 1362.83 ± 0.72 kg/m3
- mass density (303.15 K, x2 = 0.2999): 1305.7 ± 0.63 kg/m3
- mass density (303.15 K, x2 = 0.4002): 1245.47 ± 0.54 kg/m3
- mass density (303.15 K, x2 = 0.4984): 1182.57 ± 0.44 kg/m3
- mass density (303.15 K, x2 = 0.5504): 1147.44 ± 0.39 kg/m3
- mass density (303.15 K, x2 = 0.6001): 1112.9 ± 0.34 kg/m3
- mass density (303.15 K, x2 = 0.6949): 1043.28 ± 0.25 kg/m3
- mass density (303.15 K, x2 = 0.794): 964.839 ± 0.25 kg/m3
- mass density (303.15 K, x2 = 0.8503): 917.5 ± 0.31 kg/m3
- mass density (303.15 K, x2 = 0.9001): 873.653 ± 0.38 kg/m3
- mass density (308.15 K, x2 = 0): 1460.03 ± 0.86 kg/m3
- mass density (308.15 K, x2 = 0.0485): 1434.55 ± 0.83 kg/m3
- mass density (308.15 K, x2 = 0.0997): 1407.64 ± 0.79 kg/m3
- mass density (308.15 K, x2 = 0.1993): 1353.83 ± 0.7 kg/m3
- mass density (308.15 K, x2 = 0.2999): 1297.12 ± 0.61 kg/m3
- mass density (308.15 K, x2 = 0.4002): 1237.37 ± 0.52 kg/m3
- mass density (308.15 K, x2 = 0.4984): 1174.99 ± 0.43 kg/m3
- mass density (308.15 K, x2 = 0.5504): 1140.19 ± 0.38 kg/m3
- mass density (308.15 K, x2 = 0.6001): 1105.9 ± 0.33 kg/m3
- mass density (308.15 K, x2 = 0.6949): 1036.89 ± 0.24 kg/m3
- mass density (308.15 K, x2 = 0.794): 959.165 ± 0.25 kg/m3
- mass density (308.15 K, x2 = 0.8503): 912.175 ± 0.32 kg/m3
- mass density (308.15 K, x2 = 0.9001): 868.659 ± 0.38 kg/m3
- mass density (313.15 K, x2 = 0): 1450.41 ± 0.85 kg/m3
- mass density (313.15 K, x2 = 0.0485): 1425.03 ± 0.81 kg/m3
- mass density (313.15 K, x2 = 0.0997): 1398.25 ± 0.77 kg/m3
- mass density (313.15 K, x2 = 0.1993): 1344.78 ± 0.69 kg/m3
- mass density (313.15 K, x2 = 0.2999): 1288.5 ± 0.6 kg/m3
- mass density (313.15 K, x2 = 0.4002): 1229.18 ± 0.51 kg/m3
- mass density (313.15 K, x2 = 0.4984): 1167.34 ± 0.42 kg/m3
- mass density (313.15 K, x2 = 0.5504): 1132.84 ± 0.37 kg/m3
- mass density (313.15 K, x2 = 0.6001): 1098.85 ± 0.32 kg/m3
- mass density (313.15 K, x2 = 0.6949): 1030.44 ± 0.24 kg/m3
- mass density (313.15 K, x2 = 0.794): 953.436 ± 0.26 kg/m3
- mass density (313.15 K, x2 = 0.8503): 906.798 ± 0.33 kg/m3
- mass density (313.15 K, x2 = 0.9001): 863.612 ± 0.39 kg/m3
